Results: US9296725B2, “Heterocyclyl pyrimidine analogues as TYK2 inhibitors” (Cellzome Limited, priority 2012, dated 2016)
pIC50: −log10 of the molar value. Where two headings read alike, the source gives them in different places.

Tests used:
[1] = biological target: T1, TYK2 (Homo sapiens, UniProt P29597); experiment: Kinobeads assay, TYK2 (competition binding in mixed Molt4/Ramos cell lysate, dot blot detection)
T1 construct: endogenous in cells; host or cells: Molt4 (ATCC CRL-1582) and Ramos (ATCC CRL-1596), mixed lysate 1:2
T1 sequence (P29597 whole entry): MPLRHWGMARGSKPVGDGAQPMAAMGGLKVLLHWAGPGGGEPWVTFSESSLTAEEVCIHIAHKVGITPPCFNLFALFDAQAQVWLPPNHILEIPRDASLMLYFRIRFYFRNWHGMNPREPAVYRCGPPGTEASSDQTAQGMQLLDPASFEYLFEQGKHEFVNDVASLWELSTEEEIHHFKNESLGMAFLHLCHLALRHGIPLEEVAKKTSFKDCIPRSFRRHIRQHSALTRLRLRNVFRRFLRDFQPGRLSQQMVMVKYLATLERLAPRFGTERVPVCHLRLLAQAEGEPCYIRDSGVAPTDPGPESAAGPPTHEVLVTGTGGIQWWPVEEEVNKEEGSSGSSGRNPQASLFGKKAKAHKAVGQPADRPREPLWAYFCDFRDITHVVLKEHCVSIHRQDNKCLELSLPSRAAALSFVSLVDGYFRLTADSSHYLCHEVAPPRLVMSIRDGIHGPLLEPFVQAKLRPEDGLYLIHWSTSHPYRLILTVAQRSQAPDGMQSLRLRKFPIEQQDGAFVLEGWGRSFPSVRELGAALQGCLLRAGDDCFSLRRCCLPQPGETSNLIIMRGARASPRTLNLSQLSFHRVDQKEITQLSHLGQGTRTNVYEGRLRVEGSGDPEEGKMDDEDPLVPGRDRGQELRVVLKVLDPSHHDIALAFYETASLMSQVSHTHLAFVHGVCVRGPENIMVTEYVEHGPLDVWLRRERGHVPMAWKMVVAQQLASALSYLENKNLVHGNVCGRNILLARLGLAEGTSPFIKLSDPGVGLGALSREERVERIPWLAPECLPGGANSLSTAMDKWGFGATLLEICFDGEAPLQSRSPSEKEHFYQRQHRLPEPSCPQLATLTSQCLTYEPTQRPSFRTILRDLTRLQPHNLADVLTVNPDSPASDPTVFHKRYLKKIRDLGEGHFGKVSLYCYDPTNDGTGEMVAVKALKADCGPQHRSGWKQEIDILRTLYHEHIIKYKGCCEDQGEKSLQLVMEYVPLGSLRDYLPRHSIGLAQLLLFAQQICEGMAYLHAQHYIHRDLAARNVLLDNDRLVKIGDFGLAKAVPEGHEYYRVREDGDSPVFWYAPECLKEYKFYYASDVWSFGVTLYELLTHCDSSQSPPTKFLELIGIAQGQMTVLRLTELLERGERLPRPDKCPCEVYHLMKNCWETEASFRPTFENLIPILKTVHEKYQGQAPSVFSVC
Procedure, shortened: (§1)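 JAK2 and TYK2 retained on Kinobeads (immobilized aminopyrido-pyrimidine ligand) from 1:2 Molt4:Ramos lysate (10 mg/mL) were quantified by antibody dot blot (Odyssey infrared) after 3 h cold incubation with compound. Nine-step 1:3 dilution series; IC50 calculated from curves.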

[2] = biological target: T2, JAK2 (Homo sapiens, UniProt O60674); experiment: Kinobeads assay, JAK2 (competition binding in mixed Molt4/Ramos cell lysate, dot blot detection); conditions: read-out: JAK2 Band (Kinobeads assay potency, IC50)
T2 construct: endogenous in cells; host or cells: Molt4 (ATCC CRL-1582) and Ramos (ATCC CRL-1596), mixed lysate 1:2
T2 sequence (O60674 whole entry): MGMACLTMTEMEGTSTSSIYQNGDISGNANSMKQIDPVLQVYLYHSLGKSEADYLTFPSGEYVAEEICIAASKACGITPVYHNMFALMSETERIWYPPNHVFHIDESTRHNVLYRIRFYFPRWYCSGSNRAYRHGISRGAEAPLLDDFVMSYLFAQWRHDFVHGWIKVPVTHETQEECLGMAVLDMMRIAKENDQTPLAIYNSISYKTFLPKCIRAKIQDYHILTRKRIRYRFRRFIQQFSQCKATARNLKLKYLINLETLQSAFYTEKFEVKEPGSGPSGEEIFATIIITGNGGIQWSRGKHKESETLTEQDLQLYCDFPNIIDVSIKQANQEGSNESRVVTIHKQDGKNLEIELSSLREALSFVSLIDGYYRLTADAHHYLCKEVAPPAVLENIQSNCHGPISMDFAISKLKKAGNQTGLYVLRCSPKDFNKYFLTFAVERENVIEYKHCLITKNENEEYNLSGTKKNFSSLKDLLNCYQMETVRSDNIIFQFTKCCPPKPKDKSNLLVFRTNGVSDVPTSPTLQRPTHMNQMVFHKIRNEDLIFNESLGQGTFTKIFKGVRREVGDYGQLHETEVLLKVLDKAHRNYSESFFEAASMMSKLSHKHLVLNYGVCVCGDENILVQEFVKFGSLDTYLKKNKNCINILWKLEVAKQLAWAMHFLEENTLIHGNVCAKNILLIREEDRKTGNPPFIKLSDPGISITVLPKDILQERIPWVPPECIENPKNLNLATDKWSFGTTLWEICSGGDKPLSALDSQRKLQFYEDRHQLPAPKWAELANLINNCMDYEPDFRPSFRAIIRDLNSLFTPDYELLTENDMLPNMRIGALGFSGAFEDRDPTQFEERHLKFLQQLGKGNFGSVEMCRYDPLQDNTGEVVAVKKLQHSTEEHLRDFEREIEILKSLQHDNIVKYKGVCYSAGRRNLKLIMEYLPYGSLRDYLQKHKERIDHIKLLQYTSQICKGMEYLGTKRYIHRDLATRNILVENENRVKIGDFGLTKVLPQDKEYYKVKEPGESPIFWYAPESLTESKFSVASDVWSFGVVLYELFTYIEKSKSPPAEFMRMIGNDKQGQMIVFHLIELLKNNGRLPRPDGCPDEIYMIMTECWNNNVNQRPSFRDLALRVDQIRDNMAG
Procedure, shortened: as §1

[3] = Kinobeads assay, Molt4/Ramos lysate, read-out: TYK2 Band (Kinobeads assay potency, IC50)

SMILES | pIC50 [1, 3] | pIC50 [2] | pIC50 ([1]; read-out: TYK2 IC50)
CC1(C)CN(C(=O)Cn2cc(Nc3ncc(F)c(NCc4c(F)cc(F)cc4F)n3)cn2)CCO1 [Example I-39] | 7.00 to 8.00 | 5.00 to 6.00 | –
CNC(=O)Cn1cc(Nc2ncc(F)c(NCc3c(F)cccc3F)n2)cn1 [Example I-381] | 7.00 to 8.00 | 5.00 to 6.00 | –
C[C@@H](CO)NC(=O)Cn1cc(Nc2nccc(NCc3c(Cl)cccc3Cl)n2)cn1 [Example I-3, (S)-2-(4-((4-((2,6-dichlorobenzyl)amino)pyrimidin-2-yl)amino)-1H-pyrazol-1-yl)-N-(1-hydroxypropan-2-yl)acetamide] | 7.00 to 8.00 | 5.00 to 6.00 | > 7.00
Cn1cc(Nc2nccc(NCc3c(Cl)ccc(Cl)c3F)n2)cn1 [Example I-60] | 7.00 to 8.00 | 6.00 to 7.00 | –
COc1ccc(F)c(CNc2nc(Nc3cnn(CC(=O)OC(C)C)c3)ncc2F)c1F [Example I-47] | 7.00 to 8.00 | < 5.00 | –
C[C@H](CO)NC(=O)Cn1cc(Nc2nccc(NCc3c(F)ccc(F)c3F)n2)cn1 [Example I-143] | 7.00 to 8.00 | 5.00 to 6.00 | –
C[C@@H]1COCCN1C(=O)Cn1cc(Nc2ncc(F)c(NCc3c(F)cc(F)cc3F)n2)cn1 [Example I-40] | 7.00 to 8.00 | 5.00 to 6.00 | –
COc1ccc(Cl)c(CNc2nc(Nc3cnn(CC(=O)NC(C)C)c3)ncc2F)c1F [Example I-84] | ≥ 8.00 | 6.00 to 7.00 | –
OCCn1cc(Nc2ncc(F)c(NCc3c(F)cccc3F)n2)cn1 [Example I-204] | ≥ 8.00 | 5.00 to 6.00 | –
COc1c(F)cc(F)cc1CNc1nc(Nc2cnn(C)c2)ncc1Cl [Example I-276] | 6.00 to 7.00 | 7.00 to 8.00 | –
Cc1cccc(F)c1CNc1ccnc(Nc2cnn(CC(=O)NC(C)C)c2)n1 [Example I-155] | ≥ 8.00 | 5.00 to 6.00 | –
CC(C)N(C)C(=O)Cn1cc(Nc2ncc(F)c(NCc3cccc(OC(F)F)c3)n2)cn1 [Example I-56] | 7.00 to 8.00 | < 5.00 | –
O=C(Cn1cc(Nc2nccc(NCc3c(F)cccc3Cl)n2)cn1)NC1CC1 [Example I-139] | ≥ 8.00 | 5.00 to 6.00 | –
OCCn1cc(Nc2ncc(Cl)c(NCc3cccc(F)c3C(F)(F)F)n2)cn1 [Example I-333] | 6.00 to 7.00 | 5.00 to 6.00 | –
Cc1ccc(F)c(CNc2ccnc(Nc3cnn(CC(=O)N[C@@H](C)CO)c3)n2)c1F [Example I-130] | 7.00 to 8.00 | 5.00 to 6.00 | –
CCC(CC)NC(=O)Cn1cc(Nc2ncc(F)c(NCc3c(F)cc(F)cc3F)n2)cn1 [Example I-58] | 7.00 to 8.00 | < 5.00 | –
COc1ccccc1CNc1nc(Nc2cnn(C)c2)ncc1Cl [Example I-228] | 6.00 to 7.00 | 5.00 to 6.00 | –
Cc1cnc(Nc2cnn(CC(=O)N3CCOCC3)c2)nc1NCc1cc(F)cc(F)c1 [Example I-348] | 7.00 to 8.00 | 7.00 to 8.00 | –
OCCn1cc(Nc2ncc(Cl)c(NCc3ccccc3CO)n2)cn1 [Example I-357] | 6.00 to 7.00 | 5.00 to 6.00 | –

SMILES | pIC50 [1, 3] | pIC50 [2] | pIC50 ([1]; read-out: TYK2 IC50)
Cn1cc(Nc2ncc(F)c(NCc3cc(F)ccc3S(C)(=O)=O)n2)cn1 [Example I-487] | 6.00 to 7.00 | 6.00 to 7.00 | –
CC1(C)COCCN1C(=O)Cn1cc(Nc2nccc(NCc3c(F)cc(F)cc3F)n2)cn1 [Example I-459] | 7.00 to 8.00 | < 5.00 | –
COc1cc(F)c(CNc2nc(Nc3cnn(CC(=O)NC(C)C)c3)ncc2F)c(F)c1 [Example I-70] | 7.00 to 8.00 | < 5.00 | –
COc1ccc(S(C)(=O)=O)cc1CNc1nc(Nc2cnn(C)c2)ncc1Cl [Example I-449] | 7.00 to 8.00 | 6.00 to 7.00 | –
C[C@H]1COCCN1C(=O)Cn1cc(Nc2ncc(F)c(NCc3c(F)cc(F)cc3F)n2)cn1 [Example I-73] | ≥ 8.00 | 5.00 to 6.00 | –
CC(C)NC(=O)Cn1cc(Nc2nccc(NCc3c(F)ccc(C#N)c3F)n2)cn1 [Example I-134] | ≥ 8.00 | 5.00 to 6.00 | –
Cc1noc(Cn2cc(Nc3ncc(Cl)c(NCc4c(F)cccc4F)n3)cn2)n1 [Example I-483] | 6.00 to 7.00 | 5.00 to 6.00 | –
CCOC(=O)Cn1cc(Nc2ncc(F)c(NCc3c(F)cc(F)cc3F)n2)cn1 [Example I-54, Ethyl 2-(4-((5-fluoro-4-((2,4,6-trifluorobenzyl)amino)pyrimidin-2-yl)amino)-1H-pyrazol-1-yl)acetate] | 7.00 to 8.00 | 5.00 to 6.00 | –
Cn1cc(Nc2ncc(F)c(NCc3c(F)cc(F)cc3F)n2)cn1 [Example I-374] | 7.00 to 8.00 | 5.00 to 6.00 | –
CC(C)NC(=O)Cn1cc(Nc2nccc(NCc3c(F)cc(F)cc3F)n2)cn1 [Example I-50] | 7.00 to 8.00 | 5.00 to 6.00 | > 7.00
COc1ccc(F)c(CNc2ccnc(Nc3cnn(CC(=O)NCC(F)F)c3)n2)c1F [Example I-127] | 7.00 to 8.00 | 5.00 to 6.00 | –
COc1ccc(F)c(CNc2nc(Nc3cnn(CC(=O)NC(C)C)c3)ncc2F)c1F [Example I-48] | ≥ 8.00 | 5.00 to 6.00 | –
CNC(=O)Cn1cc(Nc2ncc(C)c(NCc3c(F)cccc3F)n2)cn1 [Example I-419] | 7.00 to 8.00 | 6.00 to 7.00 | –
O=C(Cn1cc(Nc2nccc(NCc3c(F)cc(F)cc3F)n2)cn1)N[C@@H]1C[C@@H]1F [Example I-102] | ≥ 8.00 | 5.00 to 6.00 | –
NC(=O)Cn1cc(Nc2ncc(Cl)c(NCc3cc(Br)cc(F)c3F)n2)cn1 [Example I-261] | 6.00 to 7.00 | 6.00 to 7.00 | –
CCOc1ccc(F)c(CNc2nc(Nc3cn[nH]c3)ncc2Cl)c1F [Example I-368] | 7.00 to 8.00 | 5.00 to 6.00 | –
Cc1cnc(Nc2cnn(CC(=O)NC3CC3)c2)nc1NCc1cc(F)cc(F)c1 [Example I-344] | 7.00 to 8.00 | 6.00 to 7.00 | –
[2H]C([2H])(O)C([2H])([2H])n1cc(Nc2ncc(Cl)c(NCc3c(F)cccc3F)n2)cn1 [Example I-234] | 7.00 to 8.00 | 6.00 to 7.00 | –

More lines, now with the values ahead:

pIC50 [1, 3] | pIC50 [2] | pIC50 ([1]; read-out: TYK2 IC50) | SMILES
6.00 to 7.00 | 5.00 to 6.00 | – | CC(C)(C)OC(=O)N1CC2CCC1CN2C(=O)Cn1cc(Nc2ncc(Cl)c(NCc3ccccc3)n2)cn1 (centres unmarked) [Example I-197]
7.00 to 8.00 | 5.00 to 6.00 | – | CS(=O)(=O)c1cccc(CNc2nc(Nc3cnn(CC(=O)NC4CC4)c3)ncc2Cl)c1 [Example I-440]
6.00 to 7.00 | 5.00 to 6.00 | – | COCCNC(=O)Cn1cc(Nc2ncc(Cl)c(NCc3ccccc3)n2)cn1 [Example I-273]
6.00 to 7.00 | 5.00 to 6.00 | – | CS(=O)(=O)NCc1cccc(CNc2nc(Nc3cnn(CC(=O)N4CCC[C@@H]4C#N)c3)ncc2Cl)c1 [Example I-399]
6.00 to 7.00 | 5.00 to 6.00 | – | Cc1cnc(Nc2cnn(C)c2)nc1NCc1cccc(CNS(C)(=O)=O)c1 [Example I-402]
7.00 to 8.00 | 6.00 to 7.00 | – | N#CC1CCCN1C(=O)Cn1cc(Nc2ncc(Cl)c(NCc3ccccc3)n2)cn1 (centres unmarked) [Example I-237]
6.00 to 7.00 | 5.00 to 6.00 | – | O=C(Cn1cc(Nc2ncc(Cl)c(NCc3cccnc3)n2)cn1)N1CCOCC1 [Example I-337]
6.00 to 7.00 | 5.00 to 6.00 | – | CC(O)Cn1cc(Nc2ncc(Cl)c(NCc3cccc(F)c3)n2)cn1 (centres unmarked) [Example I-214]
6.00 to 7.00 | 6.00 to 7.00 | – | CS(=O)(=O)c1ccccc1CNc1nc(Nc2cnn(CC(=O)N3CCOCC3)c2)ncc1Cl [Example I-453]
6.00 to 7.00 | 5.00 to 6.00 | – | Cc1cnc(Nc2cnn(CC(N)=O)c2)nc1NCc1ccccc1S(C)(=O)=O [Example I-434]
6.00 to 7.00 | 5.00 to 6.00 | – | CS(=O)(=O)c1ccccc1CNc1nc(Nc2cnn(CCO)c2)ncc1Cl [Example I-266]
6.00 to 7.00 | 6.00 to 7.00 | – | CNC(=O)Cn1cc(Nc2ncc(Cl)c(NCc3ccccc3S(=O)(=O)NC)n2)cn1 [Example I-355]
≥ 8.00 | 6.00 to 7.00 | – | O=C(Cn1cc(Nc2ncc(Cl)c(NCc3c(F)cccc3F)n2)cn1)N1CCOCC1 [Example I-161]
5.00 to 6.00 | 5.00 to 6.00 | – | CS(=O)(=O)c1ccccc1CNc1nc(Nc2cnn(CC(F)F)c2)ncc1Cl [Example I-471]
5.00 to 6.00 | 5.00 to 6.00 | – | CS(=O)(=O)c1cccc(CNc2nc(Nc3cnn(CC(F)F)c3)ncc2Cl)c1 [Example I-467]
6.00 to 7.00 | 6.00 to 7.00 | – | CC(CO)n1cc(Nc2ncc(Cl)c(NCc3ccccc3)n2)cn1 (centres unmarked) [Example I-361]
6.00 to 7.00 | 5.00 to 6.00 | – | N#C[C@@H]1CCCN1C(=O)Cn1cc(Nc2ncc(Cl)c(NCc3ccccc3)n2)cn1 [Example I-272]
6.00 to 7.00 | 6.00 to 7.00 | – | CC(O)Cn1cc(Nc2ncc(Cl)c(NCc3ccccc3F)n2)cn1 (centres unmarked) [Example I-213]
6.00 to 7.00 | 5.00 to 6.00 | – | CN(C)C(=O)Cn1cc(Nc2ncc(Cl)c(NCc3cccc(C(N)=O)c3)n2)cn1 [Example I-390]
7.00 to 8.00 | 5.00 to 6.00 | – | N#CCOc1cccc(CNc2nc(Nc3cnn(CC(=O)N4CCOCC4)c3)ncc2Cl)c1 [Example I-366]
7.00 to 8.00 | 6.00 to 7.00 | – | O=C(Cn1cc(Nc2ncc(Cl)c(NCc3ccccc3)n2)cn1)N1CC2CCC1CN2 (centres unmarked) [Example I-194]
7.00 to 8.00 | < 5.00 | – | O=C(O)Cn1cc(Nc2ncc(F)c(NCc3cccc(OC(F)F)c3)n2)cn1 [Example I-425]
6.00 to 7.00 | 5.00 to 6.00 | – | C[C@@H](C(N)=O)n1cc(Nc2ncc(Cl)c(NCc3ccccc3)n2)cn1 [Example I-291]
7.00 to 8.00 | 6.00 to 7.00 | – | N#Cc1cccc(CNc2nc(Nc3cnn(CCO)c3)ncc2Cl)c1 [Example I-182]
6.00 to 7.00 | 5.00 to 6.00 | – | O=C(Cn1cc(Nc2ncc(Cl)c(NCc3ccccn3)n2)cn1)N1CCOCC1 [Example I-338]
6.00 to 7.00 | 5.00 to 6.00 | – | CS(=O)(=O)c1cccc(CNc2nc(Nc3cnn(CC(=O)NCCO)c3)ncc2Cl)c1 [Example I-441]
